Read-outs that look alike come from different tables or passages of the source.
Legend:
[1] = test system: 59 human cancer cell lines representing nine tumour subpanels; assay: NCI SRB assay, panel and subpanel summaries; conditions: for GI50: Homo sapiens; for Selectivity index: full panel MG-MID / subpanel MG-MID
LOX IMVI = assay: NCI SRB assay; assay type: cell-based, human
SW-620 = assay: NCI SRB assay; assay type: cell-based, human
NCI-H522 = assay: NCI SRB assay; assay type: cell-based, human
SK-MEL-2 = assay: NCI SRB assay; assay type: cell-based, human
UACC-62 = assay: NCI SRB assay; assay type: cell-based, human
HOP-62 = assay: NCI SRB assay; assay type: cell-based, human
HL-60(TB) = assay: NCI SRB assay; assay type: cell-based, human; conditions: for CC50: read-out: LC50 (the source's name)
786-0 = assay: NCI SRB assay; assay type: cell-based, human; conditions: for CC50: read-out: LC50 (the source's name)
SNB-75 = assay: NCI SRB assay; assay type: cell-based, human; conditions: for CC50: read-out: LC50 (the source's name)
IGROV1 = assay: NCI SRB assay; assay type: cell-based, human; conditions: for CC50: read-out: LC50 (the source's name)
NCI-H226 = assay: NCI SRB assay; assay type: cell-based, human
OVCAR-5 = assay: NCI SRB assay; assay type: cell-based, human; conditions: for CC50: read-out: LC50 (the source's name)
[2] = Homo sapiens, NCI-H522, NCI-H522, 5-dose
[3] = Homo sapiens, SNB-75, SNB-75, 5-dose
[4] = Homo sapiens, IGROV-1, IGROV1, 5-dose

Cc1ccc(-c2nc(Nc3ccccc3C(=O)O)c3ccccc3n2)cc1 [6b, 2-((2-(p-Tolyl)quinazolin-4-yl)amino)benzoic acid]
GI50 ([1]; read-out: MG-MID (median GI50), Prostate cancer subpanel): 15.2 µM
GI50 ([1]; read-out: MG-MID (median GI50), Renal cancer subpanel): 14.7 µM
Selectivity index ([1]; Breast cancer): 1.09
Selectivity index ([1]; CNS cancer): 1.49
Selectivity index ([1]; Colon cancer): 0.87
Selectivity index ([1]; Leukaemia): 1.38
Selectivity index ([1]; Melanoma): 1.02
Selectivity index ([1]; Non-small cell lung cancer): 1.29
Selectivity index ([1]; Ovarian cancer): 0.76
Selectivity index ([1]; Prostate cancer): 0.78
Selectivity index ([1]; Renal cancer): 0.81
GI% (LOX IMVI; 10 μM): 91%
Growth Percent (LOX IMVI; 1.00E-5 Molar): 8.57%
TGI (LOX IMVI; 5-dose): 31.6 µM
TGI (LOX IMVI; 5-dose, listed as D - 835857): 3.16E-5 Molar
GI50 (LOX IMVI; Homo sapiens, 5-dose): 10.2 µM
CC50 (LOX IMVI; Homo sapiens, 5-dose, read-out: LC50 (the source's name)): 97.7 µM
LC50 (SW-620; Homo sapiens, SW-620, SW-620, 5-dose): > 100 µM
GI50 (SW-620; Homo sapiens, SW-620, 5-dose): 18.2 µM
GI% (SW-620; SW-620, 10 μM): 86%
Growth Percent (SW-620; SW-620, 1.00E-5 Molar): 14.46%
LC50 (SW-620; SW-620, 5-dose): < 100 µM
TGI (SW-620; SW-620, 5-dose): <100 µM
TGI (SW-620; SW-620, 5-dose, listed as D - 835857): > 1.00E-4 Molar
GI50 (NCI-H522; [2]): 4.35 µM
LC50 (NCI-H522; [2]): > 100 µM
GI% (NCI-H522; NCI-H522, 10 μM): 67%
Growth Percent (NCI-H522; NCI-H522, 1.00E-5 Molar): 33.17%
GI50 (NCI-H522; NCI-H522, 5-dose): 4.4 µM
LC50 (NCI-H522; NCI-H522, 5-dose): < 100 µM
TGI (NCI-H522; NCI-H522, 5-dose): 27.1 µM
TGI (NCI-H522; NCI-H522, 5-dose, listed as D - 835857): 2.71E-5 Molar
GI50 (SK-MEL-2; Homo sapiens, SK-MEL-2, SK-MEL-2, 5-dose): 3.65 µM
CC50 (SK-MEL-2; Homo sapiens, SK-MEL-2, 5-dose, read-out: LC50 (the source's name)): 83.5 µM
GI% (SK-MEL-2; SK-MEL-2, 10 μM): 94%
Growth Percent (SK-MEL-2; SK-MEL-2, 1.00E-5 Molar): 5.75%
GI50 (SK-MEL-2; SK-MEL-2, 5-dose): 3.7 µM
TGI (SK-MEL-2; SK-MEL-2, 5-dose): 15.6 µM
TGI (SK-MEL-2; SK-MEL-2, 5-dose, listed as D - 835857): 1.56E-5 Molar
GI50 (UACC-62; Homo sapiens, UACC-62, 5-dose): 10.2 µM
CC50 (UACC-62; Homo sapiens, UACC-62, 5-dose, read-out: LC50 (the source's name)): 71.6 µM
GI% (UACC-62; UACC-62, 10 μM): 89%
Growth Percent (UACC-62; UACC-62, 1.00E-5 Molar): 11.04%
TGI (UACC-62; UACC-62, 5-dose): 27.0 µM
TGI (UACC-62; UACC-62, 5-dose, listed as D - 835857): 2.70E-5 Molar
GI% (HOP-62; HOP-62, 10 μM): 72%
Growth Percent (HOP-62; HOP-62, 1.00E-5 Molar): 28.29%
LC50 (HOP-62; HOP-62, 5-dose): < 100 µM
TGI (HOP-62; HOP-62, 5-dose): 33.7 µM
TGI (HOP-62; HOP-62, 5-dose, listed as D - 835857): 3.37E-5 Molar
LC50 (HOP-62; Homo sapiens, HOP-62, HOP-62, 5-dose): > 100 µM
GI50 (HOP-62; Homo sapiens, HOP-62, 5-dose): 10.8 µM
GI% (HL-60(TB); HL-60(TB), 10 μM): 82%
Growth Percent (HL-60(TB); HL-60(TB), 1.00E-5 Molar): 17.80%
TGI (HL-60(TB); HL-60(TB), 5-dose): 75.4 µM
TGI (HL-60(TB); HL-60(TB), 5-dose, listed as D - 835857): 7.54E-5 Molar
CC50 (HL-60(TB); HL-60(TB), 5-dose): < 100 µM
CC50 (HL-60(TB); Homo sapiens, HL-60, HL-60(TB), 5-dose): > 100 µM
GI50 (HL-60(TB); Homo sapiens, HL-60(TB), 5-dose): 12.9 µM
GI% (786-0; 786-0, 10 μM): 81%
Growth Percent (786-0; 786-0, 1.00E-5 Molar): 18.67%
TGI (786-0; 786-0, 5-dose): <100 µM
TGI (786-0; 786-0, 5-dose, listed as D - 835857): > 1.00E-4 Molar
CC50 (786-0; 786-0, 5-dose): < 100 µM
CC50 (786-0; Homo sapiens, 786-0, 786-0, 5-dose): > 100 µM
GI50 (786-0; Homo sapiens, 786-0, 5-dose): 17.1 µM
GI50 (SNB-75; [3]): 1360 nM
CC50 (SNB-75; [3]): > 100 µM
GI% (SNB-75; SNB-75, 10 μM): 84%
Growth Percent (SNB-75; SNB-75, 1.00E-5 Molar): 15.71%
GI50 (SNB-75; SNB-75, 5-dose): 1400 nM
TGI (SNB-75; SNB-75, 5-dose): 80.3 µM
TGI (SNB-75; SNB-75, 5-dose, listed as D - 835857): 8.03E-5 Molar
CC50 (SNB-75; SNB-75, 5-dose): < 100 µM
GI50 (IGROV1; [4]): 19.1 µM
CC50 (IGROV1; [4]): > 100 µM
GI% (IGROV1; IGROV1, 10 μM): 69%
Growth Percent (IGROV1; IGROV1, 1.00E-5 Molar): 31.06%
TGI (IGROV1; IGROV1, 5-dose): 87.1 µM
TGI (IGROV1; IGROV1, 5-dose, listed as D - 835857): 8.71E-5 Molar
CC50 (IGROV1; IGROV1, 5-dose): < 100 µM
LC50 (NCI-H226; Homo sapiens, NCI-H226, NCI-H226, 5-dose): > 100 µM
GI50 (NCI-H226; Homo sapiens, NCI-H226, 5-dose): 10.2 µM
GI% (NCI-H226; NCI-H226, 10 μM): 85%
Growth Percent (NCI-H226; NCI-H226, 1.00E-5 Molar): 15.34%
LC50 (NCI-H226; NCI-H226, 5-dose): < 100 µM
TGI (NCI-H226; NCI-H226, 5-dose): 54.2 µM
TGI (NCI-H226; NCI-H226, 5-dose, listed as D - 835857): 5.42E-5 Molar
CC50 (OVCAR-5; Homo sapiens, OVCAR-5, OVCAR-5, 5-dose): > 100 µM
GI50 (OVCAR-5; Homo sapiens, OVCAR-5, 5-dose): 21.8 µM
GI% (OVCAR-5; OVCAR-5, 10 μM): 34%
Growth Percent (OVCAR-5; OVCAR-5, 1.00E-5 Molar): 65.92%
TGI (OVCAR-5; OVCAR-5, 5-dose): 68.9 µM
TGI (OVCAR-5; OVCAR-5, 5-dose, listed as D - 835857): 6.89E-5 Molar
CC50 (OVCAR-5; OVCAR-5, 5-dose): < 100 µM

Reference: article PMC10035947, “Development of novel anilinoquinazoline-based carboxylic acids as non-classical carbonic anhydrase IX and XII inhibitors” (Journal of Enzyme Inhibition and Medicinal Chemistry, 2023)
